In patent US8993626B2, “Methods of treatment using sterculic acid” (The United States of America, as represented by the …, priority 2010, dated 2015):
Entries after “also recorded” stand apart in the source; their conditions may differ.

Columns and labels:
ARPE19 cells [1] = assay: CellTiter-Glo luminescent cell viability assay, 15 μM 7KCh-induced cytotoxicity; type: cell-based, human; conditions: 24 hr, CellTiter-Glo
Protocol: Error bar: standard deviation, n=4.
CellTiter-Glo® Luminescent Cell Viability Assay is a homogeneous method of determining the number of viable cells in culture based on quantitation of the ATP (luminescent signal) present, an indicator of metabolically active cells.
The contents in a plate were mixed for 2 min on an orbital shaker to induce cell lysis.
5) The plate was allowed to incubate at room temperature for 10 min to stabilize luminescent signal.

ARPE-19 cells [2] = assay: ELISA of secreted VEGF, IL-6, IL-8 in conditioned medium; type: cell-based; conditions: 6 μM 7KCh alone or with 1 μM fatty acid, 48 hr
Protocol: FIGS. 16A-16E depict the secreted protein levels of (A) VEGF, (B) IL-6, and (C) IL-8 were measure by ELISA 48 hr after treatment with 6 μM 7KCh, 1 μM sterculic acid, 1 μM stearic acid, or the combinations of 7KCh with either sterculic acid or stearic acid. Error bars indicate the standard deviations. *p<0.05 comparing to 7KCh, n=3. Two-tailed Student's t-test. The expressions of GRP78 and CHOP were shown by immunoblots (D) 24 hr or (E) 48 hr after treatment with 8 μM 7KCh, 1 μM sterculic acid, 1 μM stearic acid, or the combinations of 7KCh with either sterculic acid or stearic acid.
(§1) ARPE-19 cells were seeded in 24-well plates with 1×10^5 cells per well and allowed to recover for 16-24 hr. Once confluency reached approximately 90%, the effect of the fatty acids against 7KCh-mediated cell death was examined 24 hr after incubation in serum-free medium with 12 μM 7KCh. Fatty acids were tested at 0.1, 0.5, 1, 5 and 10 μM concentrations. The effects of the fatty acids against 7KCh-mediated inflammation and ER stress were examined by incubating cells in 1 μM fatty acids with either 8 μM 7KCh (24 hr for quantitative real-time PCR (qRT-PCR), 24 and 48 hr for immunoblot), or 6 μM 7KCh for 48 hr (for ELISA). Three individual experiments were performed for each treatment with quadruplicate measurements performed for each experiment in 24-well plates.
The levels of secreted VEGF, IL-6, IL-8, and TNF-α in conditioned medium of ARPE-19 cell cultures were measured 48 hr after treatments of 6 μM 7KCh and 1 μM fatty acids using the Quantkine ELISA kits from R&D systems (Minneapolis, Minn.). The protein levels were measured in triplicates. The ELISA results were quantified using an Envision multilable plate reader (PerkinElmer, Covina, Calif.) and presented in percentage relative to the vehicle-only control.

[3] = 7-ketocholesterol-mediated cytotoxicity, 24-well CCK-8 viability; conditions: human
ARPE-19 cells [4] = assay: qRT-PCR of inflammatory cytokines and ER stress markers, 7KCh-mediated inflammation; type: cell-based
Protocol: FIGS. 13A-13D depict mRNA expressions of (A) VEGF, (B) IL-6, (C) GRP78, and (D) CHOP in response to 8 μM 7KCh with or without 1 μM long-chain fatty acids. Error bars indicate the standard deviations. *p<0.05 comparing to 7KCh, n=3. Two-tailed Student's t-test.
(§2) FIGS. 14A-14D depict mRNA expressions of (A) VEGF, (B) IL-1b, (C) IL-6, and (D) IL-8 in response to 8 μM 7KCh, 1 μM sterculic acid, 1 μM stearic acid, or the combinations of 7KCh with either sterculic acid or stearic acid. Error bars indicate the standard deviations. *p<0.05 comparing to 7KCh, n=4. Two-tailed Student's t-test.
as §2, with “15A-15D” for “14A-14D”, “TNF-α,” for “VEGF,”, “TGF-β1,” for “IL-1b,”, “GRP78,” for “IL-6,”, “CHOP” for “IL-8”, “n=3-4.” for “n=4.”
as §1
(§3) The RNA was extracted using RNeasy Mini Kit (Qiagen, Valencia, Calif.). The reverse transcription was performed with reagents and kits from Invitrogen. Quantification of mRNA expression was performed using the Taqman gene expression assays and the following primers (VEGFa, Hs00173626_m1; IL-1β, Hs01555413_m1; IL-6, Hs00174131_m1; IL-8, Hs00174103_m1; IκBα, Hs00153283_m1; GRP78, Hs99999174_m1; CHOP, Hs01090850_m1; NOX2, Hs00166163_m1; NOX4, Hs01558199_m1; SCD, Hs00748952 s1; TNF-α, Hs00174128_m1; TGF-β1, Hs00998133_m1; GAPD, 4352934e). GAPD expression was used as an endogenous standard. All qRT-PCR experiments were measured in triplicates in an ABI 7500 Real-Time PCR Instrument (Applied Biosystems, Foster City, Calif.). The results of each treatment were normalized and presented in percentage relative to the vehicle-only control.

ARPE19 cells [5] = assay: Cell Counting Kit-8 viability assay, 15 μM 7KCh-induced cytotoxicity
Protocol: 4×10^4 cells were seeded onto wells of a 96 well plate. […] Cell viability was determined as celluar dehydrogenase activity and expressed as the percentage of compound treated cells relative to that of untreated controls. error bar: standard deviation, n=4.
The kit allows sensitive colorimetric assays for the determination of the number of viable cells in cell proliferation and cytotoxicity assays. The amount of the formazan dye generated by the activity of dehydrogenases in cells is directly proportional to the number of living cells.
1) Cells were cultivated in a 96 well cell plate (Costar#3599, Corning Incorp, Corning, N.Y.).
2) The cell suspension (40,000 cells/100 μL) were added to 100 μL culture media per well and stood for 15 min at room temperature and cultured at 37° C. in a humidified 5% CO2 atmosphere.
3) Approximately 19 hr after seeding, when the cells were fully confluent, the cells were treated with either DMSO or 1 μM fatty acid in 200 μL of serum free media and subsequently added with 15 μM 7KCh in HPBCD. Then, the plate was swirled for mixing. The cells were also treated with DMSO and HPBCD, which served as vehicle control. The final DMSO and HPBCD concentrations in the media were in the range of 0.1% and 0.0675%, respectively.
Cell viability was expressed as the percentage of compound treated cells relative to that of untreated controls. Prior to measure cell viability, the cells were imaged live by Nikon TE 2000-U inverted fluorescent microscope.

[6] = tested on: stearoyl-CoA desaturase (SCD); assay: SCD mRNA expression (qRT-PCR); type: cell-based; conditions: 4 μM 7KCh, 24 hr
Protocol: FIGS. 18A and 18B depict (A) Dose response of SCD mRNA inductions by 0-12 μM 7KCh after 24 hr treatments. (B) The mRNA expressions of SCD in response to 8 μM 7KCh, 1 μM sterculic acid, 1 μM stearic acid, or the combinations of 7KCh with either sterculic acid or stearic acid. Error bars indicate the standard deviations. n=4.
as §3
To determine the effect of 7KCh on SCD expression ARPE-19 cells were incubated with 4 μM 7KCh for 24 hr. 7KCh suppressed SCD mRNA expression by approximately 60-70% (FIG. 18A). […] Treatment of the cells with 8 μM 7KCh and 1 μM sterculic acid further suppress SCD expression to 86% (FIG. 18B). […] This is the only instance where 7KCh and sterculic acid worked synergistically rather than antagonistically.

ARPE19 cells [7] = assay: 7-ketocholesterol-mediated cytotoxicity, 24-well CCK-8 viability and images; conditions: 24 hr
ARPE19 cells [8] = assay: Phase-contrast images of cells after co-treatment with 15 μM 7KCh; type: cell-based, human; conditions: 1 μM fatty acid + 15 μM 7KCh, 24 hr
Excerpt: FIG. 8 depicts phase-contrast images of ARPE19 cells at 24 hr after sterculic acid co-treatment with 7KCh.

D407 cells = assay: 7-ketocholesterol-mediated cytotoxicity, 24-well CCK-8 viability; conditions: 5 μM co-treatment with 11 μM 7KCh, 24 hr
ARPE19 cells [9] = assay: Microelectronic cell sensor assay (RT-CES), 7KCh-induced cytotoxicity; conditions: 1 μM fatty acid + 15 μM 7KCh, serum free media
Protocol: 4×10^4 cells were seeded onto wells of 16× microtiter plates. […] Cell viability was determined as a cell index (CI) calculated from the impedance of each well automatically by the RT-CES system once per hr until the end of the experiment. The data was normalized at the point immediately prior to compound treatment.
RT-CES® System is a cell-based assay system that monitors cellular events by measuring the electronic impedance of sensor electrodes integrated on the bottom of microtiter E-Plates. The presence of the cells will lead to an increase in the electrode impedance. The more cells attached to the sensor, the higher the impedance that could be monitored with RT-CES.
1) Cells were cultivated in the ACEA's 16X E-plate device containing microelectrodes at the bottom of each well to measure contact area and electrical properties of adherent cells. […]
4) Cell growth was monitored periodically (every 1 hr) for indicated durations via calculation of a “cell index” (reflect to the surface area covered by the cells) in each well. […]
6) The sensor devices were put into the incubator again and the cells were continuously monitored cellular status changes.
7) Cell viability was determined as a cell index (CI) calculated from the impedance of each well automatically by the RT-CES system once per hr until the end of the experiment. […]

ARPE-19 cells [10] = assay: Fatty acids against 7KCh-mediated cell death (CCK8); type: cell-based; conditions: 12 μM 7KCh for 24 hr; tested 0.1, 0.5, 1, 5 and 10 μM
Protocol: FIGS. 12A-12C depict ARPE-19 cell viability in response to 12 μM 7KCh with or without 0.1-5 μM (A) sterculic acid and (B) stearic acid after 24 hr treatments. Error bars indicate the standard deviations. n=3-5. Two-tailed Student's t-test. (C) Representative images of changes in cell morphology in response to 12 μM 7KCh with or without 1 μM sterculic acid and stearic acid after 24 hr treatments.
as §1
The cell viability was determined by the dehydrogenase activity of the ARPE-19 cells using Cell Counting Kit-8 (CCK8, Dojindo, Gaithersburg, Md.) according to manufacturer's protocol.
The lowest effective concentrations of fatty acids that offset the 7KCh-mediated cell death were determined. […] Table 3 lists the lowest concentrations of these fatty acids required to maintain full cell viability against 12 μM 7KCh treatment. All unsaturated fatty acids protected against 7KCh-induced cell death. […] DHA, α-linolenic, and linoleic acid prevented 7KCh-mediated cell death at 5 μM but the rest of unsaturated fatty acids and dihydrosterculic acid required 10 μM to be protective.

Structure (SMILES): CC(C)CCC[C@@H](C)[C@H]1CC[C@H]2[C@@H]3C(=O)C=C4C[C@@H](O)CC[C@]4(C)[C@H]3CC[C@]12C [7KCh, 7-Ketocholesterol]
- loss in cell viability (ARPE19 cells [1]; 15 μM 7KCh): 40-50%
- secreted IL-6 protein expression (ARPE-19 cells [2]): 1.8 fold
- secreted IL-8 protein expression (ARPE-19 cells [2]): 1.7 fold
- secreted VEGF protein expression (ARPE-19 cells [2]): 1.6 fold
- CC50 at 24 h [3]: 11 µM
- VEGF mRNA expression (ARPE-19 cells [4]; 8 μM 7KCh alone or with 1 μM fatty acid, 24 hr, FIG. 13A): 4 fold
- IL-6 mRNA expression (ARPE-19 cells [4]; 8 μM 7KCh alone or with 1 μM fatty acid, 24 hr, FIG. 13B): 22 fold
- GRP78 mRNA expression (ARPE-19 cells [4]; 8 μM 7KCh alone or with 1 μM fatty acid, 24 hr, FIG. 13C): 4 fold
- CHOP mRNA expression (ARPE-19 cells [4]; 8 μM 7KCh alone or with 1 μM fatty acid, 24 hr, FIG. 13D): 15 fold
- induction of VEGF mRNA (ARPE-19 cells [4]; 8 μM 7KCh alone or with 1 μM fatty acid, FIG. 14A): 5.5 fold
- induction of IL-1β mRNA (ARPE-19 cells [4]; 8 μM 7KCh alone or with 1 μM fatty acid, FIG. 14B): 6.7 fold
- induction of IL-6 mRNA (ARPE-19 cells [4]; 8 μM 7KCh alone or with 1 μM fatty acid, FIG. 14C): 21 fold
- induction of IL-8 mRNA (ARPE-19 cells [4]; 8 μM 7KCh alone or with 1 μM fatty acid, FIG. 14D): 4.7 fold
- induction of TNF-α mRNA (ARPE-19 cells [4]; 8 μM 7KCh alone or with 1 μM fatty acid, FIG. 15A): 2.7 fold
- induction of TGF-β1 mRNA (ARPE-19 cells [4]; 8 μM 7KCh alone or with 1 μM fatty acid, FIG. 15B): 1.3 fold
- induction of GRP78 mRNA (ARPE-19 cells [4]; 8 μM 7KCh alone or with 1 μM fatty acid, FIG. 15C): 5.4 fold
- induction of CHOP mRNA (ARPE-19 cells [4]; 8 μM 7KCh alone or with 1 μM fatty acid, FIG. 15D): 12 fold
- loss in cell viability (ARPE19 cells [5]; 15 μM 7KCh, 24 hr, CCK-8): 50-60%
- suppression of SCD mRNA expression [6]: 60-70%

Structure (SMILES): CCCCCCCC/C=C\CCCCCCCC(=O)O [oleic acid]
- protection of cell confluency and morphology (images) (ARPE19 cells [7]; 0.5 μM co-treatment with 12 μM 7KCh): no effect
- protection of cell confluency and morphology (images) (ARPE19 cells [7]; 1 μM co-treatment with 12 μM 7KCh): slight effect; also recorded: do not have such protection effect
- protection effect at 5 μM (ARPE19 cells [7]; 5 μM co-treatment with 12 μM 7KCh): slight effect; also recorded: slight protection
- increase of cell viability compared to 7KCh alone treatment (ARPE19 cells [1]; 1 μM fatty acid + 15 μM 7KCh): 10%
- cell morphological changes compared to 7KCh alone (ARPE19 cells [8]): more cells compared to 7KCh alone
- protection effect at 5 μM (D407 cells): slight effect; also recorded: not as significant comparing to sterculic acid
- effect on 7KCh-mediated mRNA induction (inflammatory response) (ARPE-19 cells [4]; 1 μM fatty acid + 8 μM 7KCh, 24 hr, FIG. 13): either ineffective or enhanced
- protective effect against cytotoxicity by 7KCh (summary of the viability assays) (ARPE19 cells [5]; 1 μM fatty acid + 15 μM 7KCh): slight protective effect
- increase of cell viability compared to 7KCh alone treatment (ARPE19 cells [5]; 1 μM fatty acid + 15 μM 7KCh, 24 hr, CCK-8): 10%
- protection from 7KCh induced cytotoxicity (cell index) (ARPE19 cells [9]): slight protective effect
- CONC. (μM): lowest concentration required to maintain full cell viability against 7KCh (ARPE-19 cells [10]): 10 µM
